Measured values from ChEMBL document CHEMBL5108080 (J Med Chem, 2022).
pIC50: −log10 of the molar value. The source made the active and inactive calls. No cut-off for these calls is given here.

Legend:
[1] = system: Influenza A virus; assay: Antiviral activity against group 2 influenza A virus H3N2 (A/Hong Kong-11/1968) infected in MDCK cells infected with supernatant of compound treated virus-producing human A549 cells assessed as reduction in viral titer at 1 to 10 uM treated for 48 hrs with virus-producing human A549 cells followed by MDCK cells infection for 48 hrs by crystal violet staining based plaque assay; type: functional, organism-based; conditions: dose 1-10 µM, time 96.0 hrs
[2] = system: Influenza A virus; assay: Antiviral activity against group 2 influenza A virus H3N2 (A/Victoria/361/2011) infected in MDCK cells infected with supernatant of compound treated virus-producing human A549 cells assessed as reduction in viral titer at 1 to 10 uM treated for 48 hrs with virus-producing human A549 cells followed by MDCK cells infection for 48 hrs by crystal violet staining based plaque assay; type: functional, organism-based; conditions: dose 1-10 µM, time 96.0 hrs
[3] = system: Influenza A virus; assay: Antiviral activity against […] influenza A H5N1 pseudotyped virus infected in A549 cells assessed as inhibition of viral entry incubated for 48 hrs by measuring luciferase activity by Neolite reporter gene assay; type: functional, organism-based; conditions: H5N1, A549, 48 h
[4] = system: Influenza A virus; assay: Antiviral activity against group 2 influenza A H7N1 pseudotyped virus infected in A549 cells assessed as inhibition of viral entry incubated for 48 hrs by measuring luciferase activity by Neolite reporter gene assay; type: functional, organism-based; conditions: H7N1, A549, 48 h
[5] = system: Vesicular stomatitis virus; assay: Antiviral activity against VSV pseudotyped virus infected in A549 cells assessed as inhibition of viral entry incubated for 48 hrs by measuring luciferase activity by Neolite reporter gene assay; type: functional, organism-based; conditions: A549, 48 h
[6] = Cytotoxicity against human A549 cells incubated for 48 hrs by celltiter-glo luminescent cell viability assay; type: toxicity, cell-based
[7] = Selectivity index, ratio of CC50 for human A549 cells to IC50 for group 2 influenza A H7N1 pseudotyped virus infected in A549 cells; type: toxicity, cell-based; conditions: read-out: Ratio CC50/IC50
[8] = Selectivity index, ratio of CC50 for human A549 cells to IC50 for […] influenza A H5N1 pseudotyped virus infected in A549 cells; type: toxicity, cell-based; conditions: read-out: Ratio CC50/IC50
[9] = Selectivity index, ratio of CC50 for human A549 cells to IC50 for VSV pseudotyped virus infected in A549 cells; type: toxicity, cell-based; conditions: read-out: Ratio CC50/IC50

Structure (SMILES)	Activity [1]	Activity [2]	pIC50 [3]	pIC50 [4]	pIC50 [5]	CC50 at 48 h [6]	selectivity ratio [7]	selectivity ratio [8]	selectivity ratio [9]
Brc1ccc(-c2nc3ncccn3c2NC2CCCCC2)cc1	Active	Active	< 4.00	6.70	4.38	> 100 µM	–	–	–
CCNC(=O)CCCOc1ccc(-c2nc3ncccn3c2NC2CCCCC2)cc1	–	–	–	7.19	–	> 100 µM	> 1600	–	–
CCCCOc1ccc(-c2nc3ncccn3c2NC2CCCC2)cc1	–	–	–	5.82	–	40 µM	27	–	–
CC(C)(C)CC(C)(C)Nc1nc2ncccn2c1-c1ccc(Br)cc1	–	–	–	5.07	–	> 100 µM	> 12	–	–
COCCOc1ccc(-c2nc3ncccn3c2Nc2ccccc2)cc1	–	–	–	5.28	–	> 100 µM	> 19	–	–
Fc1ccc(COc2ccc(-c3nc4ncccn4c3NC3CCCCC3)cc2)cc1	–	–	–	6.59	–	24 µM	92	–	–
O=C(O)CCCOc1ccc(-c2nc3ncccn3c2NC2CCCCC2)cc1	–	–	–	6.74	–	> 100 µM	> 560	–	–
CCOC(=O)C1=C[C@@H](OC(CC)CC)[C@H](NC(C)=O)[C@@H](N)C1 [OSELTAMIVIR]	Active	Active	–	–	–	–	–	–	–
CCCCOc1ccc(-c2nc3ncccn3c2NCc2ccccn2)cc1	–	–	–	4.80	–	> 100 µM	> 6	–	–
CCCCOc1ccc(-c2nc3ncccn3c2Nc2ccc(F)cc2)cc1	–	–	–	5.82	–	> 100 µM	> 67	–	–
CCCCOc1ccc(-c2nc3ncccn3c2NCc2c[nH]cn2)cc1	–	–	–	4.42	–	> 100 µM	> 3	–	–
Oc1ccc(-c2nc3ncccn3c2NC2CCCCC2)cc1	Active	Active	4.44	7.28	4.19	> 100 µM	–	–	–
COc1ccccc1-c1nc2ncccn2c1NC1CCCCC1	–	–	< 4.00	5.64	< 4.00	> 100 µM	> 43	< 1	< 1
Brc1ccc(-c2nc3ncccn3c2Nc2ccccc2)cc1	–	–	–	5.82	–	> 100 µM	> 67	–	–
CCCCOc1ccc(-c2nc3ncccn3c2NC(C)C)cc1	–	–	–	5.64	–	68 µM	30	–	–
CCCCOc1ccc(-c2nc3ncccn3c2NCC2CCCCC2)cc1	–	–	–	6.51	–	35 µM	110	–	–
Cc1cc(C)n2c(NC3CCCCC3)c(-c3ccc(Br)cc3)nc2n1	–	–	–	6.44	–	32 µM	51	–	–
CCCCOc1ccc(-c2nc3ncccn3c2NCC2CC2)cc1	–	–	–	4.60	–	> 100 µM	> 4	–	–
Nc1nc2ncccn2c1-c1ccc(Br)cc1	–	–	–	4.00	–	> 100 µM	> 1	–	–
Oc1cccc(-c2nc3ncccn3c2NC2CCCCC2)c1	–	–	–	5.00	–	100 µM	10	–	–
COCCOc1ccc(-c2nc3ncccn3c2NC2CCCCC2)cc1	–	–	–	7.10	–	> 100 µM	> 1300	–	–
CC(C)(C)CC(C)(C)Nc1c(-c2ccc(Br)cc2)nc2ncccn12	–	–	–	6.00	–	32 µM	32	–	–
c1ccc(-c2nc3ncccn3c2NC2CCCCC2)cc1	Active	Active	4.34	6.18	4.13	100 µM	–	–	–

Structure (SMILES)	Activity [1]	Activity [2]	pIC50 [3]	pIC50 [4]	pIC50 [5]	CC50 at 48 h [6]	selectivity ratio [7]	selectivity ratio [8]	selectivity ratio [9]
CCCCOc1ccc(-c2nc3ncccn3c2NCCC)cc1	–	–	–	4.66	–	> 100 µM	> 5	–	–
CCCCOc1ccc(-c2nc3ncccn3c2NC2CCCCC2)c(C)c1	–	–	–	6.66	–	32 µM	150	–	–
COc1ccccc1-c1nc2ncccn2c1N(C(C)=O)C1CCCCC1	–	–	–	< 4.00	–	> 100 µM	> 1	–	–
CCCCOc1ccc(-c2nc3ncccn3c2Nc2ccccc2)c(C)c1	–	–	–	5.35	–	23 µM	5.1	–	–
CCCCOc1ccc(-c2nc3ncccn3c2Nc2ccccc2)cc1	–	–	–	4.00	–	100 µM	1	–	–
Fc1ccc(-c2nc3ncccn3c2NC2CCCCC2)cc1	Active	Active	4.34	7.64	4.28	100 µM	–	–	–
CCCCOc1ccc(-c2nc3ncccn3c2NCc2ccc(OC)cc2)cc1	–	–	–	4.85	–	55 µM	4	–	–
CCCCOc1ccc(-c2nc3ncccn3c2NC(C)(C)CC(C)(C)C)cc1	–	–	–	5.64	–	29 µM	13	–	–
Nc1c(-c2ccc(Br)cc2)nc2ncccn12	–	–	–	4.00	–	> 100 µM	> 1	–	–
CN(c1c(-c2ccc(F)cc2)nc2ncccn12)C1CCCCC1	–	–	–	5.89	–	> 100 µM	> 77	–	–
CCCCOc1ccc(-c2nc3ncccn3c2N2C(=O)c3cccc(O)c3C2=O)cc1	–	–	–	4.82	–	> 100 µM	> 6.6	–	–
CCOC(=O)CCCOc1ccc(-c2nc3ncccn3c2NC2CCCCC2)cc1	–	–	–	5.74	–	> 100 µM	> 560	–	–
c1cnc2nc(-c3ccc(OC4CCCC4)cc3)c(NC3CCCCC3)n2c1	–	–	–	6.17	–	39 µM	57	–	–
CCCCOc1ccc(-c2nc3ncccn3c2NC2CCCCCC2)cc1	–	–	–	6.36	–	26 µM	59	–	–
Oc1ccccc1-c1nc2ncccn2c1NC1CCCCC1	–	–	–	5.00	–	> 100 µM	> 10	–	–
CCCCOc1ccc(-c2c(N)nc3ncccn23)cc1	–	–	–	4.24	–	> 100 µM	> 1.7	–	–
CCCCOc1ccc(-c2nc3ncccn3c2NCc2ccc3ccccc3c2)cc1	–	–	–	5.22	–	33 µM	6	–	–
CCCCOc1ccc(-c2nc3ncccn3c2N)cc1	–	–	–	4.00	–	> 100 µM	> 1	–	–
CCCCOc1ccc(-c2c(NC(C)(C)CC(C)(C)C)nc3ncccn23)cc1	–	–	–	5.09	–	49 µM	6	–	–
Cc1cc(Br)ccc1-c1nc2ncccn2c1NC1CCCCC1	Active	Active	4.35	6.77	4.41	45 µM	–	–	–
CCCCOc1ccc(-c2nc3ncccn3c2NCc2ccco2)cc1	–	–	–	5.10	–	78 µM	10	–	–
CCCCOc1ccc(-c2nc3ncccn3c2NCc2nc[nH]c2C)cc1	–	–	–	4.00	–	100 µM	1	–	–
Cc1cc(C)n2c(Nc3ccc4c(c3)OCCO4)c(-c3cccc(Br)c3)nc2n1	–	–	–	6.60	–	> 100 µM	> 400	–	–
